Assay results taken from patent publication US7173010B2, “Orphanin FQ receptor” (Regents of the University of Michigan, priority 2003, dated 2007).
No end group written: not given here.

Tests used:
[1] = system: circular muscle strips of distal colon; assay: Spontaneous contraction of circular muscle strips of distal colon from rats with postoperative ileus, in vitro; design: species or system rat; settings: strips from rats with PI, 4 h after surgery
Procedure: In vitro and in vivo colonic motility studies were performed using a known rat model of PI. Rats equipped with a colonic cannula underwent a sham operation or laparotomy plus simple cecum manipulation. Circular muscle strips of distal colon were studied in vitro 4 h after surgery. Cecum manipulation reduced spontaneous colonic muscle contraction by 50% compared to sham operation. […] Similarly, OFQ (10^−7 mol/L) reversed the inhibitory effects; contraction increased 450±60% over basal. […] ATP in myenteric neurons increased 2.5-fold, as measured by quinacrine immunofluorescence. In response to electrical field stimulation, ATP release (luciferase assay) from colonic tissue after cecum manipulation was 50% more than after sham operation. In vivo measurement of colonic transit using carmine migration was performed 4 h after cecum manipulation. In sham-operated rats, carmine migrated 90.8±6.5% of the colon length in 2 h. Cecum manipulation slowed transit 68±5% compared to sham operation. OFQ dose-dependently reversed delayed colonic transit evoked by cecum manipulation (0.5 and 1 nmol/L OFQ improved transit to 76±4% and 94±3%). […] These changes contribute to delayed colonic transit. OFQ, a potent inhibitor of purinergic transmission, reversed PI in rats.

[2] = system: colonic contractions; assay: Colonic contractions after infusion of peptide; format: in vivo
[3] = system: colonic transit; assay: Colonic transit (geometric center) after subcutaneous administration; format: in vivo
[4] = molecular target: T1, Orphanin FQ receptor (OFQR) (Rattus norvegicus, UniProt P35370); assay: Inhibition of [^125I] Y14-OFQ17 binding / specific OFQ binding in Cos-7 cells transfected with normal OFQR gene; settings: Cos-7 cells transfected with OFQR gene; for IC50: read-out: IC50, concentration dependent inhibition of [^125I] Y14-OFQ17 binding
T1 construct: expressed in transfected cells; host or cells: Cos-7

[5] = molecular target: T2, OFQ receptor (Rattus norvegicus, UniProt P35370); format: cell-based; settings: Cos-7 cells transfected with OFQ receptor gene
T2 construct: in Cos-7 cells transfected with OFQ receptor gene; expressed in transfected cells; host or cells: Cos-7
Text: Orphanin FQ is a neuropeptide that structurally resembles an opioid peptide. […] While not being limited to any particular mechanism, the present invention contemplates that Orphanin FQ stimulates peristalsis and enhances colonic transit by inhibiting purinergic pathways in myenteric plexus. To delineate the molecular interactions between OFQR and its ligands, Cos-7 cells were transfected with normal or chimeric OFQR genes. […] The ability of Orphanin FQ and related peptides to inhibit cAMP production in Cos-7 cells was evaluated. […] Dynorphin encoding nucleic acids and gene products are known in the art, see for example, NM_024411, NM_133828, NM_174139, NM_018863, M10088, AH002816, K02268, K02267, Alo34562, U58500, and U38912.

T1 sequence (P35370 whole entry): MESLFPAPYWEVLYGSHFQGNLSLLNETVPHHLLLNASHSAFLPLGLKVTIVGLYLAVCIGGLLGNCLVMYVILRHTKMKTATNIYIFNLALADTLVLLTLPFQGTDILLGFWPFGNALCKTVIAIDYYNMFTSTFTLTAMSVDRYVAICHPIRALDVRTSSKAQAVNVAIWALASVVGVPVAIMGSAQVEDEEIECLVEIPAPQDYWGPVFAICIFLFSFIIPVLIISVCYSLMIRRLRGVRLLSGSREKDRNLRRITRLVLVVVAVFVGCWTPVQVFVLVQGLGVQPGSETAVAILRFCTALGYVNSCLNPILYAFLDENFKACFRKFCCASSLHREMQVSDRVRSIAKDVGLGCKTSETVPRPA
T2 sequence (P35370 whole entry): as above

Cc1ccc(C(=O)Nc2ccc(S(=O)(=O)O)c3cc(S(=O)(=O)O)cc(S(=O)(=O)O)c23)cc1NC(=O)c1cccc(NC(=O)Nc2cccc(C(=O)Nc3cc(C(=O)Nc4ccc(S(=O)(=O)O)c5cc(S(=O)(=O)O)cc(S(=O)(=O)O)c45)ccc3C)c2)c1 [Suramin]
enhancement of spontaneous contraction over basal ([1]; 10^−4 mol/L): 210±15%

Nc1c(S(=O)(=O)O)cc(Nc2ccc(Nc3nc(Cl)nc(Nc4cccc(S(=O)(=O)O)c4)n3)c(S(=O)(=O)O)c2)c2c1C(=O)c1ccccc1C2=O [reactive blue 2]
enhancement of spontaneous contraction over basal ([1]; 3×10^−5 mol/L): 287±20%

Dyn A: Dynorphin A, peptide with structural homology to Orphanin FQ (YGGFLRRIRPKLKWDNQ; Dynorphin A(1-17); UniProt P01213 207-223, looked up)
type of contractions induced ([2]; infusion 100 nmol/kg/min): evoked non-migrating simultaneous contractions
colonic transit, geometric center ([3]; 30 nmol/kg): 3.14±0.21
colonic transit, geometric center ([3]; 100 nmol/kg): 2.42±0.17

Dynorphin 17: Dynorphin peptide tested for effect on OFQ binding
effect on OFQ binding [4]: no effect

FGGFTGAKKSARKLANQ [R8K]
IC50 [4]: 0.1 nM

FGGFTGARKSA [OFQ11]
IC50 [4]: 5000 nM

FGGFTGARKSARCLANQ [K13C]
IC50 [4]: 0.1 nM

Orphanin FQ(1–12): Orphanin FQ fragment, amino acids 1–12 (FGGFTGARKSAR; Nociceptin; UniProt Q13519 130-141, looked up, fragment)
potency relative to Orphanin FQ(1–17), times less potent ([2]; in vivo): 100 times

Orphanin FQ(1–13): Orphanin FQ fragment, amino acids 1–13
potency in stimulating contractions compared with full peptide Orphanin FQ(1–17) ([2]; in vivo): same potency

PPADGS
enhancement of spontaneous contraction over basal ([1]; 3×10^−5 mol/L): 5±4%

Pertussis toxin
effect on the inhibitory action of OFQ on cAMP production [5]: reversed the inhibitory action of OFQ

replacement of Arg^8 by L-alanin: Orphanin FQ with Arg8 replaced by L-alanine (FGGFTGAAKSARKLANQ; Nociceptin; UniProt Q13519 130-146, looked up, variant R8A)
Orphanin FQ activity of substituted analogues ([2]; in vivo): complete loss of activity

substitution by tyrosine: Orphanin FQ with Phe in position 1 substituted by tyrosine (YGGFTGARKSARKLANQ; Nociceptin; UniProt Q13519 130-146, looked up, variant F1Y)
Orphanin FQ activity of substituted analogues ([2]; in vivo): no loss of activity

β endorphin 31: opioid peptide tested for effect on OFQ binding
effect on OFQ binding [4]: no effect
